# Data reported in US11236052B2, “Aminobenzimidazole derivatives, treatments, and methods of inhibiting histone deacetylase” (TRANSLATIONAL DRUG DEVELOPMENT, LLC, priority 2017, dated 2022).
# Read-outs that look alike come from different tables or passages of the source.
# Tests used:
# A2780 = assay: CellTiter-Glo cell viability assay, A2780; format: cell-based; details: Ovarian; for IC50: Homo sapiens, A2780, 72 hours
# Method: (§1) Cell Viability Assay—Cell viability was measured by the CellTiter-Glo® cell viability assay Promega (Madison, Wis.). The CellTiter-Glo® Luminescent Cell Viability Assay is a homogeneous method to determine the number of viable cells in culture based on quantitation of the ATP present, which signals the presence of metabolically active cells. Following treatment, CellTiter-Glo® is added to treatment wells and incubated at 37° C. luminescence values were measured at using a Molecular Devices Spectramax microplate reader.
# (§2) Single Agent Studies—Cells were grown to 70% confluency, trypsinized, counted, and seeded in 96 well flat-bottom plates at a final concentration of 2.5×10^3-5×10^3 cells/well (Day 0). Cells were allowed to incubate in growth media for 24 hours. Treatment with the test agents began on Day 1 and continued for 72 hours. At the 72-hour time point, treatment-containing media was removed. Viable cell numbers are quantified by the CellTiter-Glo® cell viability assay as described above. Experiments were run with triplicate concentrations to determine growth inhibitory activity. Results from these studies were used to calculate an IC50 value (concentration of drug that inhibits cell growth by 50 percent of control) for each compound.
# (§3) Data Collection—For single agent and combination studies, data from each experiment was collected and expressed as % Cell Growth using the following calculation: % Cell Growth=(ftest/fvehicle)×100
# (§4) Where ftest is the luminescence of the tested sample, and fvehicle is the luminescence of the vehicle in which the drug is dissolved. Dose response graphs and IC50 values were generated using Prism 6 software (GraphPad).
# MDA468 = assay: CellTiter-Glo cell viability assay, MDA468; format: cell-based; details: Breast; for IC50: MDA468, 72 hours
# Method: as §1, §2, §3, §4
# Permeability (PAMPA) = format: in vitro ADME; details: read-out: Permeabiltiy (PAMPA)
# KMS-11 = assay: CellTiter-Glo cell viability assay, KMS-11; format: cell-based; details: Myeloma; for IC50: Homo sapiens, KMS-11, 72 hours
# Method: as §1, §2, §3, §4
# KMS-34 = assay: CellTiter-Glo cell viability assay, KMS-34; format: cell-based; details: Myeloma; for IC50: KMS-34, 72 hours
# Method: as §1, §2, §3, §4
# MM1.S cells = assay: CellTiter-Glo cell viability assay, MM1.S cells; format: cell-based, human; details: for IC50: Homo sapiens
# Method: Cell viability in the presence of varying concentrations of the above listed compounds at different time points was used to assess cytotoxicity and the effect of the compounds on cell proliferation.
# as §1, with “CellTiter-GlO®” for “CellTiter-Glo®”, “assay from” for “assay”, “reader” for “reader.”
# as §2, with “agents or standard agents” for “agents”, “72 hour timepoint, treatment containing” for “72-hour time point, treatment-containing”, “CellTiter-GlO®” for “CellTiter-Glo®”, “above.” for “above. Experiments were run with triplicate concentrations to determine growth inhibitory activity.”
# Data Collection—For single agent and combination studies, data from each experiment was collected and expressed as % Cell Growth using the following calculation: Cell Growth=(ftest/fvehicle)×100
# Where ftest is the fluorescence of the tested sample, and fvehicle is the fluorescence of the vehicle in which the drug is dissolved. Dose response graphs and IC50 values were generated using Prism 6 software (GraphPad) using the following equation: […]
# Where X is the logarithm of concentration and Y is the response. Y starts at the Bottom and goes to Top with a sigmoid shape.
# as §1, §2, §3, §4
# MV411 = assay: CellTiter-Glo cell viability assay, MV411; format: cell-based; details: AML; for IC50: Homo sapiens, MV4-11, MV411, 72 hours
# Method: as §1, §2, §3, §4
# SUDHL-10 = assay: CellTiter-Glo cell viability assay, SUDHL-10; format: cell-based; details: Lymphoma; for IC50: Homo sapiens, SU-DHL10, SUDHL-10, 72 hours
# Method: as §1, §2, §3, §4
# H1437 = assay: CellTiter-Glo cell viability assay, H1437; format: cell-based; details: NSCLC; for IC50: Homo sapiens, NCI-H1437, H1437, 72 hours
# Method: as §1, §2, §3, §4
# AN3CA = assay: CellTiter-Glo cell viability assay, AN3CA; format: cell-based; details: Uterine; for IC50: Homo sapiens, AN3-CA, 72 hours
# Method: as §1, §2, §3, §4
# SNG-M = assay: CellTiter-Glo cell viability assay, SNG-M; format: cell-based; details: Uterine; for IC50: 72 hours
# Method: as §1, §2, §3, §4
# K562 = assay: CellTiter-Glo cell viability assay, K562; format: cell-based; details: CML; for IC50: Homo sapiens, K562, 72 hours
# Method: as §1, §2, §3, §4
# A549 = assay: CellTiter-Glo cell viability assay, A549; format: cell-based; details: NSCLC; for IC50: Homo sapiens, A549, 72 hours
# Method: as §1, §2, §3, §4
# Mino = assay: CellTiter-Glo cell viability assay, Mino; format: cell-based; details: Lymphoma; for IC50: Homo sapiens, 72 hours
# Method: as §1, §2, §3, §4
# BC-1 = assay: CellTiter-Glo cell viability assay, BC-1; format: cell-based; details: Lymphoma; for IC50: Homo sapiens, BC1, BC-1, 72 hours
# Method: as §1, §2, §3, §4
# SKUT-1 = assay: CellTiter-Glo cell viability assay, SKUT-1; format: cell-based; details: Uterine; for IC50: Homo sapiens, SK-UT-1, SKUT-1, 72 hours
# Method: as §1, §2, §3, §4
# MCF7 = assay: CellTiter-Glo cell viability assay, MCF7; format: cell-based; details: Breast; for IC50: Homo sapiens, MCF7, 72 hours
# Method: as §1, §2, §3, §4
# S9 in vitro half-life = format: in vitro ADME; details: S9 fraction
# U266 = assay: CellTiter-Glo cell viability assay, U266; format: cell-based; details: Myeloma; for IC50: Homo sapiens, U-266, U266, 72 hours
# Method: as §1, §2, §3, §4
# % PPB, human = format: in vitro ADME; details: plasma; human (hu)
# SUDHL-4 = assay: CellTiter-Glo cell viability assay, SUDHL-4; format: cell-based; details: Lymphoma; for IC50: Homo sapiens, SU-DHL-4, SUDHL-4, 72 hours
# Method: as §1, §2, §3, §4
# [1] = MM1.S cells, 72 hours treatment, read-out: IC50 in MM1.S
# [2] = Myeloma, MM1.S, 72 hours (Table 3), read-out: IC50
smiles,measurement,setting,value
"O=C(NO)c1ccc(Nc2nc3ccccc3n2CC2CCCCC2)cc1 [ID #1, 4-((1-(cyclohexylmethyl)-1H-benzo[d]imidazol-2-yl)amino)-N-hydroxybenzamide]",IC50,A2780,2.03 µM
same,Improvement ID #1 over ID #3 Percent,A2780; A2780,63.62%
same,Improvement ID #1 over ID #3 fold,A2780; A2780,2.75 fold
same,Improvement ID #1 over ID #3 Percent,MDA468; MDA468,58.63%
same,Improvement ID #1 over ID #3 fold,MDA468; MDA468,2.42 fold
same,IC50,MDA468,3.86 µM
same,Papp,Permeability (PAMPA),1.68 ×10⁻⁶ cm/s
same,IC50,KMS-11,1.42 µM
same,Improvement ID #1 over ID #3 Percent,KMS-11; KMS-11,52.98%
same,Improvement ID #1 over ID #3 fold,KMS-11; KMS-11,2.13 fold
same,Improvement ID #1 over ID #3 Percent,KMS-34; KMS-34,55.15%
same,Improvement ID #1 over ID #3 fold,KMS-34; KMS-34,2.23 fold
same,IC50,KMS-34,0.61 µM
same,IC50,MM1.S cells; [1],0.5 µM
same,IC50,MM1.S cells; [2],0.5 µM
same,Improvement ID #1 over ID #3 Percent,"MM1.S cells; Myeloma, MM1.S",76.08%
same,Improvement ID #1 over ID #3 fold,"MM1.S cells; Myeloma, MM1.S",4.18 fold
same,Improvement ID #1 over ID #3 Percent,MV411; MV411,77.09%
same,Improvement ID #1 over ID #3 fold,MV411; MV411,4.37 fold
same,IC50,MV411,0.63 µM
same,IC50,SUDHL-10,0.55 µM
same,Improvement ID #1 over ID #3 Percent,SUDHL-10; SUDHL-10,63.58%
same,Improvement ID #1 over ID #3 fold,SUDHL-10; SUDHL-10,2.75 fold
same,IC50,H1437,2.19 µM
same,Improvement ID #1 over ID #3 Percent,H1437; H1437,54.28%
same,Improvement ID #1 over ID #3 fold,H1437; H1437,2.19 fold
same,IC50,AN3CA,1.6 µM
same,Improvement ID #1 over ID #3 Percent,AN3CA,64.99%
same,Improvement ID #1 over ID #3 fold,AN3CA,2.86 fold
same,Improvement ID #1 over ID #3 Percent,SNG-M,78.93%
same,Improvement ID #1 over ID #3 fold,SNG-M,4.75 fold
same,IC50,SNG-M,1.7 µM
same,Improvement ID #1 over ID #3 Percent,K562; K562,69.90%
same,Improvement ID #1 over ID #3 fold,K562; K562,3.32 fold
same,IC50,K562,1.58 µM
same,IC50,A549,2.29 µM
same,Improvement ID #1 over ID #3 Percent,A549; A549,77.10%
same,Improvement ID #1 over ID #3 fold,A549; A549,4.37 fold
same,IC50,Mino,1.2 µM
same,Improvement ID #1 over ID #3 Percent,Mino,71.22%
same,Improvement ID #1 over ID #3 fold,Mino,3.48 fold
same,IC50,BC-1,1.79 µM
same,Improvement ID #1 over ID #3 Percent,BC-1; BC-1,63.69%
same,Improvement ID #1 over ID #3 fold,BC-1; BC-1,2.75 fold
same,IC50,SKUT-1,3.8 µM
same,Improvement ID #1 over ID #3 Percent,SKUT-1; SKUT-1,60.21%
same,Improvement ID #1 over ID #3 fold,SKUT-1; SKUT-1,2.51 fold
same,Improvement ID #1 over ID #3 Percent,MCF7; MCF7,44.79%
same,Improvement ID #1 over ID #3 fold,MCF7; MCF7,1.81 fold
same,IC50,MCF7,1.96 µM
same,half-life,S9 in vitro half-life,1.25 h
same,IC50,U266,1.17 µM
same,Improvement ID #1 over ID #3 Percent,U266; U266,71.46%
same,Improvement ID #1 over ID #3 fold,U266; U266,3.50 fold
same,fraction unbound,"% PPB, human",0.0056
same,IC50,SUDHL-4,0.24 µM
same,Improvement ID #1 over ID #3 Percent,SUDHL-4; SUDHL-4,94.24%
same,Improvement ID #1 over ID #3 fold,SUDHL-4; SUDHL-4,17.38 fold
"O=C(NO)c1ccc(Nc2nc3ccccc3n2C2CCCCCC2)cc1 [ID #3, 4-((1-cycloheptyl-1H-benzo[d]imidazol-2-yl)amino)-N-hydroxybenzamide]",IC50,A2780,5.58 µM
same,IC50,MDA468,9.33 µM
same,Papp,Permeability (PAMPA),2.2 ×10⁻⁶ cm/s
same,IC50,KMS-11,3.02 µM
same,IC50,KMS-34,1.36 µM
same,IC50,MM1.S cells; [1],2.1 µM
same,IC50,MM1.S cells; [2],2.09 µM
same,IC50,MV411,2.75 µM
same,IC50,SUDHL-10,1.51 µM
same,IC50,H1437,4.79 µM
same,IC50,AN3CA,4.57 µM
same,IC50,SNG-M,8.07 µM
same,IC50,K562,5.25 µM
same,IC50,A549,10 µM
same,IC50,Mino,4.17 µM
same,IC50,BC-1,4.93 µM
same,IC50,SKUT-1,9.55 µM
same,IC50,MCF7,3.55 µM
same,half-life,S9 in vitro half-life,1.22 h
same,IC50,U266,4.1 µM
same,fraction unbound,"% PPB, human",0.0064
same,IC50,SUDHL-4,4.17 µM
